Data from publication PMC11478212, “Antitumoral and Antiproliferative Potential of Synthetic Derivatives of Scorpion Peptide IsCT1 in an Oral Cavity Squamous Carcinoma Model” (Molecules, 2024).

How the values were obtained:
[1] = tested on: SCC-25 tumor cells; assay: Cellular marker expression by flow cytometry; type: cell-based
Method: (§1) Figure 6 Analysis of marker expression in tongue squamous cell carcinoma tumor cells. The expression of markers was quantified using flow cytometry after 24 h of treatment with the AC-AFPK-IsCT1 peptide at its IC50 value determined for each cell line. (a) Representative density plots display the distribution of cells with fluorescence intensity; (b) marker expression in SCC-9 tumor cells; (c) marker expression in SCC-25 tumor cells. Bar graphs present protein expression levels as the mean ± SD from three independent experiments. Values are expressed as the mean ± SD from three independent experiments. Statistical differences were determined using ANOVA and Tukey–Kramer multiple comparison tests. * p < 0.05 and *** p < 0.001 denote significance. ns = not significant.
(§2) Tumor cells SSC-9 and SSC-25, both treated with the peptides at their IC50 concentrations for 24 h and control groups (10^5 cells/mL), were incubated at 4 °C for 1 h with 1 μg of specific antibodies conjugated with Alexa Fluor™ 488. Various markers associated with cell death and cell cycle progression, such as caspase 3 and 8, cyclin D1, PCNA, p53, and TNF-α conjugated with Alexa Fluor™ 488, were used as indicated. For intracellular markers, TritonX 0.1% was used for 30 min at room temperature before antibody labeling. Following centrifugation at 1500 rpm and washing with PBS, the supernatant was discarded and the pellet was resuspended in 200 μL of FACS buffer. The reading and analysis of receptor expression on the cell surface of tumor cells were carried out using a FACScanto flow cytometer (BD) with fluorescence intensity FL1-H for the number of events (10,000 events), and the dot plots were acquired and analyzed using FCS Express software.

[2] = tested on: SCC-9 tumor cells; assay: Cellular marker expression by flow cytometry; type: cell-based
Method: as §1, §2

[3] = tested on: normal FN1 cells; assay: Mitochondrial membrane electrical potential (ΔΨm) by flow cytometry; type: cell-based, human; settings: 24 h, IsCT-P and AC-AFPK-IsCT1 at IC50, others 100 µM, MitoRed, compared to control cells, mean ± SD of three independent experiments
Method: Figure 4 Analysis of mitochondrial electrical potential (ΔΨm) using flow cytometry following a 24 h treatment with synthetic analogs of IsCT1 peptides. The indicated cells were treated at the IC50 values obtained for the IsCT-P and AC-AFPK-IsCT1 peptides and at a concentration of 100 µM for the other peptides. (a) Representative histograms of cell distribution according to ΔΨm; (b) bar graph showing ΔΨm expressed as the mean ± SD of three independent experiments of SCC-9 tumor cells; (c) bar graph showing ΔΨm expressed as the mean ± SD of three independent experiments of SCC-25 tumor cells; (d) bar graph showing ΔΨm expressed as the mean ± SD of three independent experiments of normal FN1 cells; (e) bar graph showing ΔΨm expressed as the mean ± SD of three independent experiments of normal J774 cells. Statistical differences were obtained using ANOVA and Tukey–Kramer multiple comparison tests. * p < 0.05, ** p < 0.01, and *** p < 0.001 denote significance. ns = not significant.
Tumor (SSC-9 and SSC-25) and normal cells (FN1 and J-774) were subjected to treatment for a period of 24 h at the peptides’ IC50 concentrations. After treatment, the cells were trypsinized, centrifuged at 1200 rpm for 5 min, the supernatant was discarded, and the cells were resuspended in complete medium containing MitoRed™ (Sigma-Aldrich, USA) (200 nM/L). […]

[4] = 24 h at IC50, compared to control cells, mean ± SD of three independent experiments
[5] = 24 h at IC50, mean ± SD of three independent experiments

Ac-ALGKFWPKIKSLF-NH2 [AC-AFPK-IsCT1]
decrease in Cyclin D1 expression [1, 4]: 15 ± 1.3% | decrease in PCNA expression [1, 4]: 22.8 ± 2.5% | increase in TNF-α-expressing cells [1, 5]: 85.6 ± 8.4% | increase in caspase 3 expression [1, 5]: 86.2 ± 7% | increase in caspase 8 expression [1, 5]: 82.3 ± 5.5% | increase in p53-expressing cells [1, 5]: 83.5 ± 1.8% | change in Cyclin-D1 expression ([2]; 24 h at IC50): No significant changes | increase in caspase 3 expression [2, 4]: 67 ± 4.9% | increase in caspase 8 expression [2, 4]: 61.6 ± 3% | increase in cells expressing TNF-α [2, 4]: 69.2 ± 2.6% | increase in cells expressing p53 [2, 4]: 60.7 ± 1.6% | reduction in PCNA expression [2, 4]: 21.4 ± 0.4% | decrease in ΔΨm [3]: No changes
